From US20030134859A1 (SANKYO COMPANY, LIMITED, priority 2000, published 2003)
Counter-ions that a name gives are not always drawn. Like-named read-outs stand apart in the source and are kept apart here.

Tests used:
[1] = system: human colon cancer cells COL-2-JCK; assay: Inhibition of colony forming activity in human colon cancer cells; assay type: cell-based; details: 1 μM test compound, 10 days, sum of colony areas vs control; for inhibition at 1 µM: Homo sapiens, 240 h, read-out: Inhibition Rate (%) against the colony forming activity
Method in brief: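 COL-2-JCK cells seeded at 300 cells/well and grown 10 days at 37 °C, 5% CO2 with compound at 1 μM final (0.1% DMSO). Colonies stained with crystal violet in formalin; inhibition % = (1 − treated/control colony area)×100.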

[2] = system: Balb/c mice; assay: Prevention of concanavalin A liver injury; assay type: in vivo, mouse; details: 10 mg/mL suspension at 10 mL/kg, 30 min prior to Con A, plasma 24 hr after Con A; for inhibition in vivo at 10000 µg/mL, 100 mg/kg: Mus musculus, po, 24 h
Method in brief: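 Female Balb/c mice, 6-8 weeks, 5/group; compound suspended at 10 mg/mL in 0.5% CMC, given orally at 10 mL/kg 30 min before i.v. Con A (2.0 mg/mL, 10 mL/kg). Plasma AST and ALT measured 24 hr after Con A; inhibitory rate calculated against vehicle and untreated groups.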

[3] = read-out: Preventing rate against liver injury, ALT (%)
[4] = read-out: Preventing rate against liver injury, AST (%)

Row | Compound | inhibition at 1 µM [1] | inhibition in vivo at 10000 µg/mL, 100 mg/kg [2, 3] | inhibition in vivo at 10000 µg/mL, 100 mg/kg [2, 4] | further results
1 | O=C(Nc1ccc(-c2ccc([N+](=O)[O-])cc2)cc1)c1cc([N+](=O)[O-])ccc1Cl [Example 9, N-[4-(4-Nitrophenyl)phenyl)-(2-chloro-5-nitrophenyl)carboxamide] | 29% | – | – | –
2 | CCCc1ccc(NC(=O)c2cc([N+](=O)[O-])ccc2Cl)cc1 [Example 15, N-(4-Propylphenyl)-(2-chloro-5-nitrophenyl)carboxamide] | 14% | 39% | 54% | –
3 | O=C(Nc1ccc(OC(F)(F)F)cc1)c1cc([N+](=O)[O-])ccc1Cl [Example 18, N-(4-Trifluoromethyloxyphenyl)-(2-chloro-5-nitrophenyl)carboxamide] | – | 39.8% | 24.1% | –
4 | Cc1ccc(S(=O)(=O)Nc2ccc(NC(=O)c3cc([N+](=O)[O-])ccc3Cl)cc2)cc1 [Example 32, N-[4-(4-Methylbenzene)sulfonylaminophenyl]-(2-chloro-5-nitrophenyl)carboxamide] | – | – | – | Inhibition Rate (%) against the colony forming activity [1]: 39.0%
5 | O=C(Nc1nc2ccc([N+](=O)[O-])cc2s1)c1cc([N+](=O)[O-])ccc1Cl [Example 34, N-(6-Nitrobenzothiazol-2-yl)-(2-chloro-5-nitrophenyl)carboxamide] | 41% | – | – | –
6 | O=C(Nc1ccncc1)c1cc([N+](=O)[O-])ccc1Cl [Example 49, N-(4-Pyridyl)-(2-chloro-5-nitrophenyl)carboxamide] | – | 59% | 61% | –
7 | O=C(Nc1cnc2ccccc2c1)c1cc([N+](=O)[O-])ccc1Cl [Example 55, N-(3-Quinolinyl)-(2-chloro-5-nitrophenyl)carboxamide] | 8% | – | – | –
8 | O=C(Nc1nccc2ccccc12)c1cc([N+](=O)[O-])ccc1Cl [Example 59, N-(Isoquinolin-1-yl)-(2-chloro-5-nitrophenyl)carboxamide] | 94% | 18.7% | 20.5% | –
9 | O=C(Nc1nc2cc(Cl)ccc2o1)c1cc([N+](=O)[O-])ccc1Cl [Example 75, N-(5-Chlorobenzoxazol-2-yl)-(2-chloro-5-nitrophenyl)carboxamide] | 65% | – | – | –
10 | O=C(Nc1ncc(Br)cn1)c1cc([N+](=O)[O-])ccc1Cl [Example 77, N-(5-Bromopyrimidin-2-yl)-(2-chloro-5-nitrophenyl)carboxamide] | 1% | – | – | –
11 | Nc1ccc(-c2ccc(NC(=O)c3cc([N+](=O)[O-])ccc3Cl)cc2)cc1 [Example 88, N-[4-(4-Aminophenyl)phenyl]-(2-chloro-5-nitrophenyl)carboxamide mono-hydrochloride] | 8% | 42.3% | 57% | –
12 | Cc1c(C)c2c(c(C)c1O)C(=O)CC(C)(COc1ccc(NC(=O)c3cc([N+](=O)[O-])ccc3Cl)cc1)O2 (stereo not shown) [Example 92, N-[4-(6-Hydroxy-2,5,7,8-tetramethyl-4-oxochroman-2-ylmethoxy)phenyl]-(2-chloro-5-nitrophenyl)carboxamide] | 15% | – | – | –
13 | CS(=O)(=O)Nc1ccc(-c2ccc(NC(=O)c3cc([N+](=O)[O-])ccc3Cl)cc2)cc1 [Example 93, N-[4-[4-(Methanesulfonylamino)phenyl]phenyl]-(2-chloro-5-nitrophenyl)carboxamide] | 44% | – | – | –
14 | Cc1nnc(NS(=O)(=O)c2ccc(NC(=O)c3cc([N+](=O)[O-])ccc3Cl)cc2)s1 [Example 101, N-[4-[(5-Methyl-[1,3,4]thiadiazol-2-yl)aminosulfonyl]phenyl]-(2-chloro-5-nitrophenyl)carboxamide] | 32% | – | – | –
15 | Cc1noc(NS(=O)(=O)c2ccc(NC(=O)c3cc([N+](=O)[O-])ccc3Cl)cc2)c1C [Example 104, N-[4-[(3,4-Dimethylisoxazol-6-yl)aminosulfonyl]phenyl]-(2-chloro-5-nitrophenyl)carboxamide] | 22% | – | – | –
16 | O=C(Nc1ccc(N2CCCCC2)cc1)c1cc([N+](=O)[O-])ccc1Cl [Example 114, N-[4-(Piperidin-1-yl)phenyl]-(2-chloro-5-nitrophenyl)carboxamide] | 22% | 32.8% | 50.5% | –
17 | CC(=O)Nc1ccc(-c2ccc(NC(=O)c3cc([N+](=O)[O-])ccc3Cl)cc2)cc1 [Example 118, N-[4-(4-Acetylaminophenyl)phenyl]-(2-chloro-5-nitrophenyl)carboxamide] | 41% | 55.8% | 45% | –
18 | O=C(Nc1ccc(-c2ccc(NC(=O)c3cc([N+](=O)[O-])ccc3Cl)cc2)cc1)c1ccccc1 [Example 120, N-[4-(4-Benzoylaminophenyl)phenyl]-(2-chloro-5-nitrophenyl)carboxamide] | 44% | – | – | –
19 | Cc1ccc2nc(NC(=O)c3cc([N+](=O)[O-])ccc3Cl)sc2c1 [Example 141, N-(6-Methybenzothiazol-2-yl)-(2-chloro-5-nitrophenyl)carboxamide] | – | – | – | Inhibition Rate (%) against the colony forming activity [1]: 47.0%
20 | CCc1ccc(S(=O)(=O)Nc2ccc(NC(=O)c3cc([N+](=O)[O-])ccc3Cl)cc2)cc1 [Example 150, N-[4-(4-Ethylbenzenesulfonylamino)phenyl]-(2-chloro-5-nitrophenyl)carboxamide] | 41% | – | – | –
21 | CC(=O)c1cccc(NC(=O)c2cc([N+](=O)[O-])ccc2Cl)c1 [Example 156, N-(3-Acetylphenyl)-(2-chloro-5-nitrophenyl)carboxamide] | – | 85.5% | 82.6% | –
22 | O=C(Nc1ccc(C(=O)N2CCCCC2)cc1)c1cc([N+](=O)[O-])ccc1Cl [Example 159, N-[4-(Piperidylcarbonyl)phenyl]-(2-chloro-5-nitrophenyl)carboxamide] | – | 78.7% | 91.2% | –
23 | CC(C)(C)c1cc(NS(=O)(=O)c2cccc(NC(=O)c3cc([N+](=O)[O-])ccc3Cl)c2)cc(C(C)(C)C)c1O [Example 161, N-[3-[(3,5-di-tert-Butyl-4-hydroxyphenyl)aminosulfonyl]phenyl]-(2-chloro-5-nitrophenyl)carboxamide] | – | 82.8% | 69.3% | –
24 | N-[4-[4-(Pyrrolidin-1-ylamino)phenyl]phenyl]-(2-chloro-5-nitrophenyl)carboxamide [Example 171] | – | – | – | Preventing rate against liver injury, ALT (%) ([2]; oral): 90.0%; Preventing rate against liver injury, AST (%) ([2]; oral): 102.8%
